Legend:
[1] = tested on: Sommerweizen Sorte Moskovskaya 35; assay: Field trial of gametocidal activity, spring wheat; type: in vivo, Weizen; settings: 1% aqueous emulsion
in vivo = settings: mouse
[2] = tested on: Diploider Roggen Sorte Gibrid 1864/74; assay: Field trial of gametocidal activity, diploid rye Gibrid 1864/74; settings: 1% aqueous emulsion, 10 kg/ha
[3] = tested on: Winterweizens Sorte Mironovskaya 808; assay: Field trial of gametocidal activity (anther sterilisation), winter wheat; type: in vivo, Weizen; settings: 2% aqueous emulsion, 20 kg/ha; for response vs control in vivo at 20000 g/ha: control = 100, read-out: Prozentsatz des Ansetzens bei freier Bestäubung
[4] = tested on: Diploider Roggen Sorte Gibrid 340/65; assay: Field trial of gametocidal activity, diploid rye Gibrid 340/65; settings: Gibrid 340/65 (text: 312/65), 1% aqueous emulsion, 10 kg/ha
[5] = tested on: Hirse Sorte Mironovskoe 94; assay: Field trial of gametocidal activity, millet Mironovskoe 94; type: in vivo; settings: 1% aqueous emulsion, 10 kg/ha; for response vs control in vivo at 10000 g/ha: control = 100, read-out: Prozentsatz des Ansetzens bei freier Bestäubung
Tritikale Sorte PRAG I09 = assay: Field trial of gametocidal activity, triticale; type: in vivo; settings: 1% aqueous emulsion, 12 kg/ha; for Prozentsatz des Ansetzens bei freier Bestäubung: control = 100
Text: (§1) Bei Weizen und Tritikale werden Einzelisolatoren verwendet.
Pflanzen von Tritikale Sorte PRAG I09 werden in der V. und VI.
Der Verbrauch an Sterilisationsmittel beträgt 12 kg/ha.

[6] = tested on: Diploider Roggen Sorte Chulpan; assay: Field trial of gametocidal activity, diploid rye Chulpan; type: in vivo; settings: single compounds, 1% aqueous emulsion, 10 kg/ha
Text: as §1
Pflanzen von diploidem Roggen Sorte Chulpan werden in der V. oder VI.
Der Verbrauch an Sterilisationsmitteln beträgt 10 kg/ha.

[7] = tested on: Sonnenblume Sorte Peredovik; assay: Field trial of pollen sterilisation, sunflower Peredovik; type: in vivo; settings: 0,2% aqueous emulsion, 1,2 kg/ke (so in the source)
Text: Pflanzen der Sonnenblume Sorte Peredovik werden in der V. oder VI.
Der Verbrauch an Sterilisationsmittel beträgt 1,2 kg/ke.

Sonnenblume Linie VK 119 = assay: Field trial of pollen sterilisation, sunflower line VK 119; settings: 0,2% aqueous emulsion, 1,2 kg/ha
Roggen Sorte Voskhod 2 = assay: Field trial of gametocidal activity, diploid rye Voskhod 2; type: in vivo; settings: 1% aqueous emulsion, 8 kg/ha
[8] = V. or VI. period of organogenesis
[9] = V. or VI. period, read-out: Prozentsatz der Sterilität

For `OCC(O)COc1ccc(F)cc1` (stereo not shown) [Beispiel 4], the “Anzahl von Körnern der Ähre bei freier Bestäubung” value ([1]; 10 kg/ha, V. period) was 25,9, the “Anzahl von Körnern der Ähre im Isolator” value ([1]; 10 kg/ha, V. period) was 0,4 and the percent sterility at 10000 g/ha ([1]; 10 kg/ha, V. period, read-out: Prozentsatz der Sterilität) was 98.6%. For the same molecule, the response vs control in vivo ([1]; control = 100, read-out: Prozentsatz des Ansetzens bei freier Bestäubung) was 94.2%, the LD50 (in vivo; LD50, weisse Mäuse) was 400 to 600 mg/kg and the “Anzahl von Körnern der Ähre bei freier Bestäubung” value ([2]; V. period) was 42,8. For the same molecule, the “Anzahl von Körnern der Ähre im Isolator” value ([2]; V. period) was 0,0, the “Prozentsatz der Sterilität” value ([2]; V. period) was 100% and the “Prozentsatz des Ansetzens bei freier Bestäubung” value ([2]; control = 100) was 88,2%. The “Anzahl von Körnern der Ähre bei freier Bestäubung” value [3, 8] was 30,6, the “Anzahl von Körnern der Ähre im Isolator” value [3, 8] was 0,0 and the response vs control in vivo at 20000 g/ha [3] was 75.4%.
For `CCC(CO)(CO)CO` [Beispiel 39, Etriol], the “Anzahl von Körnern der Ähre bei freier Bestäubung” value ([4]; V. and VI. periods) was 53,2, the “Anzahl von Körnern der Ähre im Isolator” value ([4]; V. and VI. periods) was 1,6 and the “Prozentsatz der Sterilität” value ([4]; V. and VI. periods) was 96,7%. For the same molecule, the “Prozentsatz des Ansetzens bei freier Bestäubung” value ([4]; control = 100) was 98,5%, the “Anzahl von Körnern der Rispe bei freier Bestäubung” value ([5]; V. or VI. period) was 355,1 and the “Anzahl von Körnern der Rispe im Isolator” value ([5]; V. or VI. period) was 0,0. For the same molecule, the percent pollen sterility at 10000 g/ha [5, 9] was 100%, the response vs control in vivo at 10000 g/ha [5] was 93.6% and the “Anzahl von Körnern der Ähre bei freier Bestäubung” value (Tritikale Sorte PRAG I09; V. and VI. period) was 68,2. For the same molecule, the “Anzahl von Körnern der Ähre im Isolator” value (Tritikale Sorte PRAG I09; V. and VI. period) was 0,7, the “Prozentsatz der Sterilität” value (Tritikale Sorte PRAG I09; V. and VI. period) was 99,0% and the “Prozentsatz des Ansetzens bei freier Bestäubung” value (Tritikale Sorte PRAG I09) was 98,8%.
In the case of `NCCO.O=CO` [Beispiel 48, Monoäthanolaminsalz der Ameisensäure], the “Anzahl von Körnern der Ähre bei freier Bestäubung” value ([6]; Chulpan, V. or VI. period) is reported as 55,2, the “Anzahl von Körnern der Ähre im Isolator” value ([6]; Chulpan, V. or VI. period) is reported as 1,2 and the “Prozentsatz der Sterilität” value ([6]; Chulpan, V. or VI. period) is reported as 97,7%. The “Prozentsatz des Ansetzens bei freier Bestäubung” value ([6]; Chulpan, control = 100) was 97,4%, the “Anzahl von Körnern der Rispe bei freier Bestäubung” value ([5]; V. or VI. period) was 352,2 and the “Anzahl von Körnern der Rispe im Isolator” value ([5]; V. or VI. period) was 0,0. The “Prozentsatz der Sterilität” value ([5]; V. or VI. period) was 100%, the “Prozentsatz des Ansetzens bei freier Bestäubung” value ([5]; control = 100) was 92,8% and the “Prozentsatz der Sterilität” value (Tritikale Sorte PRAG I09; V. and VI. period) was 99,9%. For the same molecule, the “Prozentsatz des Ansetzens bei freier Bestäubung” value (Tritikale Sorte PRAG I09) was 92,9%.
For `ClCC1CO1` (stereo not shown) [Beispiel II, 3-Chlor-1,2-epoxypropan], the “Anzahl von Körnern der Ähre bei freier Bestäubung” value ([6]; Chulpan, V. or VI. period) was 48,9, the “Anzahl von Körnern der Ähre im Isolator” value ([6]; Chulpan, V. or VI. period) was 0,0 and the pest or weed control at 10000 g/ha ([6]; read-out: Prozentsatz der Sterilität, Chulpan, V. or VI. period) was 100%. For the same molecule, the response vs control in vivo at 10000 g/ha ([6]; read-out: Prozentsatz des Ansetzens bei freier Bestäubung, Chulpan, control = 100) was 86.2%, the “Anzahl von Körnern der Rispe bei freier Bestäubung” value ([5]; V. or VI. period) was 312,3 and the “Anzahl von Körnern der Rispe im Isolator” value ([5]; V. or VI. period) was 0,0. It also gave a pest or weed control at 10000 g/ha [5, 9] of 100%, a response vs control in vivo at 10000 g/ha [5] of 82.2% and an LD50 (in vivo) of 238 mg/kg. The Pollensterilität in % [7] was 100%, the “Ansetzen von Achänen bei freier Bestäubung in %” value ([7]; V. or VI. period) was 82,3% and the “Ansetzen von Achänen im Isolator bei der Bestäubung mit dem Pollengemisch in %” value ([7]; V. or VI. period) was 0,0%. The “Ansetzen von Achänen bei freier Bestäubung in %” value (Sonnenblume Linie VK 119) was 85,0%, the “Ansetzen von Achänen im Isolator bei der Bestäubung mit dem Pollengemisch in %” value (Sonnenblume Linie VK 119) was 0,0% and the Pollensterilität in % (Sonnenblume Linie VK 119) was 100%. For the same molecule, the “Anzahl von Körnern der Ähre bei freier Bestäubung” value (Roggen Sorte Voskhod 2; V. or VI. period) was 51,7, the “Anzahl von Körnern der Ähre im Isolator” value (Roggen Sorte Voskhod 2; V. or VI. period) was 0,6 and the “Prozentsatz der Sterilität” value (Roggen Sorte Voskhod 2; V. or VI. period) was 98,8%. The “Prozentsatz des Ansetzens bei freier Bestäubung” value (Roggen Sorte Voskhod 2; control = 100) was 94,7%, the pest or weed control at 20000 g/ha ([3]; V. or VI. period of organogenesis, read-out: Prozentsatz der Sterilität) was 99.8% and the response vs control in vivo at 20000 g/ha [3] was 77.5%.
